Where “and” joins values, the source holds several entries; their conditions need not be identical. Equal entries are not always repeated. Where two headings read alike, the source gives them in different places.
Tests used:
[1] = test system: MCF-7 breast tumor cells; settings: Sundaram and Gewirtz, 1999; Sundaram et al., 2000; cited from earlier work
[2] = test system: MCF-7 cells; assay: Viable cell number by trypan blue exclusion; assay type: cell-based, human
Procedure: (§1) All cell lines were grown from frozen stocks in basal RPMI 1640 medium supplemented with 10% fetal calf serum, 2 mM L-glutamine, penicillin/streptomycin at 37° C. under a humidified, 5% CO2 atmosphere. All studies were conducted using approximately 10^4 cells/cm^2 at day 0 with the use of time-equivalent and concentration-equivalent controls. The results shown are averages of two to three studies.
The response of cells treated with adriamycin (1 μM) for 2 hr and irradiation (10 Gy) was assessed 72 hr after treatment by trypan blue exclusion. The response of cells treated with ILX 23-7553 (200 nM) for 72 hr was evaluated 72 hr after removal of ILX 23-7553. To evaluate the combined effects of adriamycin or irradiation with ILX 23-7553 (200 nM), cells were treated with ILX 23-7553 for 72 hr prior to adriamycin (1 μM) or irradiation (10 Gy) and allowed to grow for an additional 72 hr. Cells were harvested using trypsin, stained with 0.4% trypan blue and trypan blue negative cells were counted under phase contrast microscopy.

[3] = test system: MCF-7 cells; assay: TUNEL assay of DNA fragmentation (apoptotic cell death); assay type: cell-based, human; settings: for DNA fragmentation indicative of apoptotic cell death: agent alone
Source text: The method of Gavrielli et al. (1992) was utilized as an independent assessment of apoptotic cell death in combined cytospins containing both adherent and non-adherent cells. The cells were fixed and the fragmented DNA in cells undergoing apoptosis was detected using the In Situ Cell Death detection Kit (Boehringer-Manheim). In this assay, the fragmented DNA in individual cells was end labeled using fluorescein-dUTP at strand breaks by the enzyme terminal transferase. The slides were then washed, mounted in Vectashield and photographed using a Nikon fluorescent microscope. For quantitation, fluorescent cells were scored positive for DNA fragmentation.

[4] = test system: MCF-7 cells; assay: Cell morphology (Wright-Giemsa stain, light microscopy); assay type: cell-based, human; settings: for apoptotic cell morphology (dark and shrunken cells): 72 h after exposure; for apoptotic cell morphology: agent alone
Source text: Seventy-two hours after adriamycin or irradiation exposure, cells were washed and cytocentrifuged onto microscopic slides. The cells were stained Wright-Giesma stain and photographed under a Nikon light microscope.

[5] = test system: MCF-7 cells; assay: Clonogenic analysis (colony forming assay) with statistical model of additivity; assay type: cell-based, human; settings: for Predicted Response Under Additivity (Surviving Fraction): statistical model of additivity
Procedure: as §1
MCF-7 cells were treated with ILX 23-7553 (200 nM), adriamycin or radiation alone and with ILX 23-7553 preceding various doses of adriamycin or radiation. For analysis of additivity, MCF-7 cells were treated with various doses of ILX 23-7553 (0-200 nM) in combination with a single dose of either adriamycin (20 nM) or irradiation (2.5 Gy). Cells were trypsinized immediately following adriamycin or radiation under sterile conditions and plated in triplicate in 6 well cell culture plates at approximately 1000 cells for each condition. After 7-10 days, the cells were fixed with 100% methanol, air-dried for 1-2 hr and stained with […] crystal violet. Groups of 50 or more cells were counted as colonies.
The predicted responses for the colony forming assay were determined using the following model: y=exp(B0+B1x1+B2x2) where y is the predicted response, x1 is either dose of irradiation ([…]) or adriarnycin (nM), x2 is the dose of ILX 23-7553 (nM), B0 is an unknown parameter associated with the intercept, B1 is an unknown parameter associated with the slope of x1 and B2 is an unknown parameter associated with the slope of x2. Parameter estimates were found using a generalized least squares criterion for nonlinear models. A constant variance was assumed across the dose range of all four compounds. The Gauss-Newton iterative algorithm was used in PROC NLIN in SAS (version 6.12) to find parameter estimates. The compare the observed response at each combination point to that predicted under the hypotheses of additivity, a prediction interval was used following Gennings et al. (1997). An overall test for additivity (Radford et al., 1994) was based on testing they hypothesis that the mean response under the hypothesis of additivity is the true mean response. The estimated responses under the hypothesis of additivity were provided by the additivity model. The estimated responses for the true means were provided by the sample means at each mixture group.

[6] = test system: MCF-7 cells; settings: previous work, literature; cited from earlier work
[7] = ILX 23-7553 pretreatment followed by radiation

C=C1/C(=C\C=C2/CCC[C@]3(C)[C@@H]([C@H](C)/C=C/C=C/C(O)(CC)CC)CC[C@@H]23)C[C@@H](O)C[C@@H]1O [EB 1089]
effect on the response of MCF-7 breast tumor cells to adriamycin and irradiation [1]: enhances

C=C1/C(=C\C=C2/CCC[C@]3(C)C([C@H](C)CC#CC(C)(C)O)=CC[C@@H]23)C[C@@H](O)C[C@@H]1O [ILX 23-7553]
cytotoxicity at 0.2 µM ([2]; Homo sapiens, MCF7, 72 h, ILX 23-7553 200 nM for 72 h alone, counted 72 h after removal, vs untreated controls, read-out: decrease in viable cell number): 60%
cytotoxicity at 0.2 µM ([2]; Homo sapiens, MCF7, ILX 23-7553 200 nM 72 h pretreatment followed by 10 Gy ionizing radiation, counted 72 h after, read-out: decrease in viable cell number): 93%
cytotoxicity at 0.2 µM ([2]; Homo sapiens, MCF7, ILX 23-7553 200 nM 72 h pretreatment followed by adriamycin 1 μM, counted 72 h after, read-out: decrease in viable cell number): 97%
decrease in viable cell numbers as compared to ILX 23-7553 alone [2, 7]: 66%
decrease in viable cell numbers as compared to radiation alone [2, 7]: 24%
percent TUNEL-positive cells (cells with DNA fragmentation) ([3]; ILX 23-7553 pretreatment followed by adriamycin): 15% and 14%
percent TUNEL-positive cells (cells with DNA fragmentation) ([3]; ILX 23-7553 pretreatment followed by irradiation): 7%
DNA fragmentation indicative of apoptotic cell death [3]: not induced
apoptotic cell morphology (dark and shrunken cells) ([4]; ILX 23-7553 in combination with adriamycin): observed
apoptotic cell morphology (dark and shrunken cells) ([4]; ILX 23-7553 in combination with irradiation): observed
apoptotic cell morphology [4]: did not produce cells with this apoptotic morphology
fold decrease in adriamycin dose required to reduce clonogenic survival by 50% ([5]; 200 nM ILX 23-7553 pretreatment for 72 h vs adriamycin alone): ~2.5 fold and 2 fold
fold reduction in irradiation dose required to reduce clonogenic survival by 50% ([5]; 200 nM ILX 23-7553 pretreatment for 72 h vs irradiation alone): 4 fold
Observed Mean Response (Surviving Fraction) ([5]; Adr 1 nM, ILX 200 nM): 0.67
Predicted Response Under Additivity (Surviving Fraction) ([5]; Adr 1 nM, ILX 200 nM): 0.53
Observed Mean Response (Surviving Fraction) ([5]; Adr 5 nM, ILX 200 nM): 0.58
Predicted Response Under Additivity (Surviving Fraction) ([5]; Adr 5 nM, ILX 200 nM): 0.51
Observed Mean Response (Surviving Fraction) ([5]; Adr 10 nM, ILX 200 nM): 0.52
Predicted Response Under Additivity (Surviving Fraction) ([5]; Adr 10 nM, ILX 200 nM): 0.49
Observed Mean Response (Surviving Fraction) ([5]; Adr 20 nM, ILX 50 nM): 0.58
Predicted Response Under Additivity (Surviving Fraction) ([5]; Adr 20 nM, ILX 50 nM): 0.63
Observed Mean Response (Surviving Fraction) ([5]; Adr 20 nM, ILX 100 nM): 0.50
Predicted Response Under Additivity (Surviving Fraction) ([5]; Adr 20 nM, ILX 100 nM): 0.56
Observed Mean Response (Surviving Fraction) ([5]; Adr 20 nM, ILX 200 nM): 0.46
Predicted Response Under Additivity (Surviving Fraction) ([5]; Adr 20 nM, ILX 200 nM): 0.44
Observed Mean Response (Surviving Fraction) ([5]; Adr 100 nM, ILX 200 nM): 0.24
Predicted Response Under Additivity (Surviving Fraction) ([5]; Adr 100 nM, ILX 200 nM): 0.20
Observed Mean Response (Surviving Fraction) ([5]; IR 0.5 Gy, ILX 200 nM): 0.34
Predicted Response Under Additivity (Surviving Fraction) ([5]; IR 0.5 Gy, ILX 200 nM): 0.51
Observed Mean Response (Surviving Fraction) ([5]; IR 1.0 Gy, ILX 200 nM): 0.27
Predicted Response Under Additivity (Surviving Fraction) ([5]; IR 1.0 Gy, ILX 200 nM): 0.41
Observed Mean Response (Surviving Fraction) ([5]; IR 2.5 Gy, ILX 50 nM): 0.23
Predicted Response Under Additivity (Surviving Fraction) ([5]; IR 2.5 Gy, ILX 50 nM): 0.29
Observed Mean Response (Surviving Fraction) ([5]; IR 2.5 Gy, ILX 200 nM): 0.20
Predicted Response Under Additivity (Surviving Fraction) ([5]; IR 2.5 Gy, ILX 200 nM): 0.22
Observed Mean Response (Surviving Fraction) ([5]; IR 5.0 Gy, ILX 200 nM): 0.13
Predicted Response Under Additivity (Surviving Fraction) ([5]; IR 5.0 Gy, ILX 200 nM): 0.08
dose of irradiation required to produce a 50% decrease in clonogenic survival ([5]; after 200 nM ILX 23-7553 pretreatment (irradiation alone: 1 Gy)): 0.25 Gy
type of interaction between ILX 23-7553 and irradiation (additive vs synergistic) ([5]; colony forming assays, observed vs predicted surviving fractions, p=0.196): additively
type of interaction between ILX 23-7553 and adriamycin (additive vs synergistic) ([5]; colony forming assays, observed vs predicted surviving fractions, p=0.461): additively

COc1cccc2c1C(=O)c1c(O)c3c(c(O)c1C2=O)C[C@@](O)(C(=O)CO)C[C@@H]3O[C@H]1C[C@H](N)[C@H](O)[C@H](C)O1 [adriamycin, reference compound]
cytotoxicity at 1 µM ([2]; Homo sapiens, MCF7, adriamycin 1 μM (2 hr acute exposure) alone, counted 72 h after, vs untreated controls, read-out: decrease in viable cell number): 74%
DNA fragmentation indicative of apoptotic cell death [3]: not induced
apoptotic cell morphology [4]: did not produce cells with this apoptotic morphology
induction of apoptotic cell death [6]: neither adriamycin nor irradiation induces apoptotic cell death
